Laboratory results from US11744830B2, “Ameliorative agent for cytokine release syndrome and so on” (TORII PHARMACEUTICAL CO., LTD., priority 2018, dated 2023).
Counter-ions that a name gives are not always drawn.

How the values were obtained:
[1] = test system: TNF-α production; assay: CRS toxicity evaluation system using CAR-T cells: TNF-α; assay type: cell-based, human; conditions: for IC50: Homo sapiens, Monocyte, CAR-T cells, target cells and monocytes, 72 hours
Protocol: The supernatants were collected at 72 hours after the initiation of culture, and various cytokines in each supernatant were measured by FACS multiplex assay.

[2] = test system: IFN-γ production from CD8^+ T cells; assay: T-cell stimulation bead-induced IFN-γ production in CD8^+ T cells; assay type: cell-based, human; conditions: CD3/CD28 stimulation, 3 days
Protocol: Cryopreserved PBMCs were quickly thawed in a 37° C. thermostat and added to a tube containing medium. After centrifugation (at room temperature at 300 g for 10 minutes) to remove the supernatant, the cells were suspended in the medium, a portion of which was then mixed with a trypan blue solution to count the number of viable cells. The cell suspension was centrifuged (at room temperature at 300 g for 10 minutes) to remove the supernatant, followed by addition of MACS Buffer in a volume of 80 μL per 1×10^7 cells to suspend the cells, to which Human CD8 MicroBeads (20 μL) were further added. After being allowed to stand on ice for 15 minutes, the cell suspension was diluted with MACS Buffer (2 mL) and centrifuged (at room temperature at 300 g for 10 minutes) to remove the supernatant.
MACS Buffer (500 μL) was added to the tube, and the cells were suspended and then applied to a separatory column to separate CD8^+ cells. The CD8^+ cell fraction was diluted to 15 mL with the medium and then centrifuged (at room temperature at 300 g for 10 minutes). The supernatant was removed and the cells were suspended in the medium (1 mL), followed by counting the number of viable cells. The cell suspension adjusted with the medium to 1×10^6 cells/mL was seeded in a 96-well plate in a volume of 100 μL/well (1×10^5 cells/well) and allowed to stand in a CO2 incubator for 1 to 2 hours.
The collected culture supernatants were quantified for IFN-γ using Human IFN-γ DuoSet ELISA.

[3] = test system: IL-6 production in CD4^+ T cell-depleted PBMCs; assay: T-cell stimulation bead- and LPS stimulation-induced CRS toxicity evaluation system in CD4^+ T cell-depleted PBMCs: IL-6; assay type: cell-based, human; conditions: for IC50: Homo sapiens, 72 h, 3 days
Protocol: (§1) Cryopreserved human PBMCs were quickly thawed in a 37° C. thermostat and added to a tube containing medium. After centrifugation (at room temperature at 300 g for 10 minutes) to remove the supernatant, the cells were suspended again in the medium (10 mL), followed by counting the number of viable cells. The remainder of the cell suspension was centrifuged (at room temperature at 300 g for 10 minutes) to remove the supernatant, followed by addition of MACS Buffer in a volume of 80 μL and Human CD4 MicroBeads in a volume of 20 μL per 1×10^7 cells to suspend the cells. After being allowed to stand on ice for 15 minutes, the cell suspension was diluted with MACS Buffer (2 mL) and centrifuged (at room temperature at 300 g for 10 minutes) to remove the supernatant. MACS Buffer (500 μL) was added to the tube, and the cells were suspended and then applied to a separatory column to separate CD4^− cells (a pass-through fraction of CD4^+ cells). The CD4^− cell fraction was diluted to 15 mL with the medium and then centrifuged (at room temperature at 300 g for 10 minutes) to remove the supernatant, and the cells were then suspended again in the medium (1 mL), followed by counting the number of viable cells. The cell suspension adjusted with the medium to 1×10^6 cells/mL was seeded in a 96-well plate in a volume of 100 μl/well (1×10^5 cells/well) and allowed to stand in a CO2 incubator for 1 to 2 hours.
(§2) The collected culture supernatants were quantified for IFN-γ and IL-6 using Human IFN-γ DuoSet ELISA and Human IL-6 DuoSet ELISA.

[4] = test system: IFN-γ production in CD4^+ T cell-depleted PBMCs; assay: T-cell stimulation bead- and LPS stimulation-induced CRS toxicity evaluation system in CD4^+ T cell-depleted PBMCs: IFN-γ; assay type: cell-based; conditions: Homo sapiens, 72 h, CD3/CD28 + LPS, 3 days
Protocol: as §1, with “The cell suspension adjusted with the medium to 1×10^6 cells/mL was seeded in a 96-well plate in a volume of 100 μl/well (1×10^5 cells/well) and allowed to stand in a CO2 incubator for 1 to 2 hours.” left out
as §2

[5] = test system: IL-6 production from PBMCs; assay: T-cell stimulation bead- and LPS stimulation-induced CRS toxicity evaluation system in PBMCs: IL-6; assay type: cell-based, human; conditions: CD3/CD28 + LPS; for IC50: Homo sapiens, PBMC, 72 h, 3 days
Protocol: Cryopreserved PBMCs were quickly thawed in a 37° C. thermostat and added to a tube containing medium. After centrifugation (at room temperature at 300 g for 10 minutes) to remove the supernatant, the cells were suspended again in the medium (10 mL), followed by counting the number of viable cells. After centrifugation (at room temperature at 300 g for 10 minutes) to remove the supernatant, the medium was added to suspend the cells at 1×10^6 cells/mL. This cell suspension was seeded in a 96-well plate in a volume of 100 μl/well (1×10^5 cells/well) and allowed to stand in a CO2 incubator for 1 to 2 hours.
The cells were cultured in a CO2 incubator for 3 days to collect the culture supernatants.
as §2

[6] = test system: IL-6 production from PBMCs; assay: LPS stimulation-induced IL-6 production in PBMCs; assay type: cell-based; conditions: Homo sapiens, PBMC, 72 h, LPS 3 ng/mL, 3 days
Protocol: Cryopreserved PBMCs were quickly thawed in a 37° C. thermostat and added to a tube containing medium. After centrifugation (at room temperature at 300 g for 10 minutes) to remove the supernatant, the cells were suspended again in the medium (10 mL), followed by counting the number of viable cells. After centrifugation (at room temperature at 300 g for 10 minutes) to remove the supernatant, the medium was added to suspend the cells at 1×10^6 cells/mL. This cell suspension was seeded in a 96-well plate in a volume of 100 μL/well (1×10^5 cells/well). […] The cells were cultured in a CO2 incubator for 3 days to collect the culture supernatants.
The collected culture supernatants were quantified for IL-6 using Human IL-6 DuoSet ELISA.

## CCOC(=O)[C@H](Cc1ccccc1)NC(=O)c1cc(Cl)c(OCCN2CCN(C)CC2)c(Cl)c1O [JTE-607, (−)-ethyl N-{3,5-dichloro-2-hydroxy-4-[2-(4-methylpiperazin-1-yl)ethoxy]benzoyl}-L-phenylalaninate dihydrochloride]
[1]
  IC50: 413 nM
[2]; Homo sapiens, T-cell, 72 h
  IC50: > 300 nM
[3]; CD3/CD28 + LPS
  Ratio (IL-6/IFN-γ) of IC50 values: 0.52
  IC50: 42.2 nM
[4]
  IC50: 80.9 nM
[5]
  Ratio (IL-6/IFN-γ) of IC50 values: 0.81
  IC50: 40.4 nM
[6]
  IC50: 17.7 nM

## C[C@]12C=CC(=O)C=C1CC[C@@H]1[C@@H]2[C@@H](O)C[C@@]2(C)[C@H]1CC[C@]2(O)C(=O)CO [PSL, Prednisolone]
[1]; CRS toxicity evaluation system using CAR-T cells
  suppressive effect on TNF-α: no suppressive effect
[1]
  IC50: > 100000 nM
[2]
  IC50: 149 nM
[2]; Homo sapiens, T-cell, 72 h
  IC50: 149 nM
[3]; CD3/CD28 + LPS
  IC50: > 30000 nM
[3]; T-cell stimulation beads and LPS
  suppression of IL-6 production: did not suppress
[4]
  IC50: 42 nM
[5]
  IC50: 3570 nM
[6]
  IC50: 176 nM
